Tests used:
NHEK keratinocytes = assay: ROS production in NHEK keratinocytes subjected to UVA (H2DCFDA probe); type: cell-based, Human; details: UVA 5 J/cm^2, extract at 0.29%, active at 0.3%, ascorbic acid at 300 μg/mL, 24 h pre-treatment, FIG. 2
Description: The Normal Human foreskin-derived Epidermal Keratinocytes isolated from 3 Caucasian donors (NHEKs, Lonza, 00192906) were grown in Epilife medium (Fisher Scientific, M-EPI-500-A) supplemented with Human Keratinocyte Growth Supplement (HKGS, Fisher Scientific, S-001-5). The cells were maintained in a humidified incubator at 37° C. with a 5% CO2 atmosphere. The detection and quantification of the intracellular ROS amounts from 2D NHEK keratinocytes or 3D RHE were performed using the H2DCFDA (2′-7′dichlorodihydrofluorescein diacetate; Fisher Scientific; D399) probe. After its diffusion into the live cells, the probe is deacetylated by intracellular esterases to a non-fluorescent compound. This compound can be oxidized by ROS and converted into the highly fluorescent DCF (2′-7′ dichlorofluorescein). The production of ROS by cells can be therefore measured through the level of fluorescence emitted by the oxidized dye. NHEK keratinocytes in 24-well plates were pre-treated in the culture medium during 24 h by the compounds at 1 concentration or with the antioxidant reference, ascorbic acid at 300 μg/mL. […] Following the challenge, the fluorescence was measured (excitation: 475 nm; emission: 500-550 nm) with a fluorescence microplate reader (Glomax Explorer, Promega). […]

pro-MMP1 = assay: Pro-MMP1 release from NHDFs fibroblasts (ELISA); type: cell-based, Human; details: NHDFs treated 72 h; B 0.0079%, E 0.029%, A 0.03%; TGF-β1 20 ng/ml; TNFα 20 ng/mL + IL1β 2.5 ng/ml; vs untreated control; FIG. 3
Description: The Normal Human foreskin-derived Dermal Fibroblasts (NHDFs; ATCC, CRL-2522) cells were grown in Dulbecco's Modified Eagle Medium (DMEM, Gibco/Life Technologies, 31885) supplemented with 10% of Foetal Bovine Serum (FBS, Gibco/Life Technologies, 10270). The cells were maintained in a humidified incubator at 37° C. with a 5% CO2 atmosphere.
NHDF fibroblasts were cultivated on 24-well plates in complete culture medium (containing 10% FBS) 24 h before the treatment with the compounds. Cells were then treated for 72 h with the test compounds in culture medium, in absence of FBS. In parallel, reference treatments were applied according to the same method (TGF-β at 20 ng/ml; combination of TNFα at 20 ng/ml and IL1β at 2.5 ng/ml). All the treatments were performed in triplicate of culture (n=3).
At the end of the 72 h of treatments, all the supernatants were collected, aliquoted and stored at −20° C. until further use in specific ELISA assays. Through these assays, the quantifications of the extracellular releases of pro-MMP1 (R&D systems, DMP100) produced by NHDFs fibroblasts were assessed according to the supplier's specifications.

| Molecule | ROS production (NHEK keratinocytes) | pro-MMP1 release in supernatant (pro-MMP1) |
| --- | --- | --- |
| O=C1O[C@H]([C@@H](O)CO)C(O)=C1O [ascorbic acid] | partially suppressed this effect | – |
| TGF-β1: negative reference at 20 ng/ml in the pro-MMP1 assay | – | reduced |
